Values quoted from earlier work as cited in patent publication US20070225217A1, “Methods, compositions, and kits for the treatment of medical conditions” (CombinatoRx, Incorporated, priority 2005, published 2007).

absorption after oral administration: absorbed rapidly and completely
SMILES: CO[C@H]1C[C@@H]2CC[C@@H](C)[C@@](O)(O2)C(=O)C(=O)N2CCCC[C@H]2C(=O)O[C@H]([C@H](C)C[C@@H]2CC[C@@H](O)[C@H](OC)C2)CC(=O)[C@H](C)/C=C(\C)[C@@H](O)[C@@H](OC)C(=O)[C@H](C)C[C@H](C)/C=C/C=C/C=C/1C [Rapamycin]
